# Results reported in ChEMBL document CHEMBL3885861, “Open TG-GATES”.
# Species: Rattus norvegicus
# Assay: Open TG-GATES - Regimen: Daily Repeat
# Type: toxicity, organism-based, Sprague-Dawley
# Design: regimen Daily Repeat, gender Male, age 6 weeks
# Details: in vivo, po, 30 mg/kg, route gavage, dose level Low; for APTT / Bas / Eos / Fbg / Hb / Ht / Lym / MCH / MCHC / MCV / Mono / Neu / PT / Plat / RBC / Ret / WBC: tissue Blood; for ALP / ALT / AST / BUN / CRE / DBIL / GLC / IP / K / Na / PL / RALB / TBIL / TC / TG / TP / gamma-GTP: tissue Plasma
compound,measurement,setting,value
NS(=O)(=O)c1cc(C(=O)O)c(NCc2ccco2)cc1Cl [FUROSEMIDE],TERMINAL_BW,"72 h, time 3 day",242 g
same,APTT,"72 h, time 3 day",16.1 s
same,Bas,"72 h, time 3 day",0.2%
same,Eos,"72 h, time 3 day",1%
same,Fbg,"72 h, time 3 day",282.4 mg/dL
same,Hb,"72 h, time 3 day",13.4 g/dL
same,Ht,"72 h, time 3 day",39.8%
same,Lym,"72 h, time 3 day",79.2%
same,MCH,"72 h, time 3 day",21.7 pg
same,MCHC,"72 h, time 3 day",33.6%
same,MCV,"72 h, time 3 day",64.6 fL
same,Mono,"72 h, time 3 day",2.4%
same,Neu,"72 h, time 3 day",16.8%
same,PT,"72 h, time 3 day",15.2 s
same,Plat,"72 h, time 3 day",115.5 x10_4/uL
same,RBC,"72 h, time 3 day",617 x10_4/ul
same,Ret,"72 h, time 3 day",5.5%
same,WBC,"72 h, time 3 day",93.7 x10_2/uL
same,ALP,"72 h, time 3 day",1458.2 IU/L
same,ALT,"72 h, time 3 day",37.6 IU/L
same,AST,"72 h, time 3 day",66.6 IU/L
same,BUN,"72 h, time 3 day",16.2 mg/dL
same,CRE,"72 h, time 3 day",0.2 mg/dL
same,DBIL,"72 h, time 3 day",0.012 mg/dL
same,GLC,"72 h, time 3 day",173.8 mg/dL
same,IP,"72 h, time 3 day",7.3 mg/dL
same,K,"72 h, time 3 day",3.8 meq/L
same,Na,"72 h, time 3 day",142.6 meq/L
same,PL,"72 h, time 3 day",157 mg/dL
same,RALB,"72 h, time 3 day",2.6 g/dL
same,TBIL,"72 h, time 3 day",0.048 mg/dL
same,TC,"72 h, time 3 day",79.2 mg/dL
same,TG,"72 h, time 3 day",94.6 mg/dL
same,TP,"72 h, time 3 day",5.7 g/dL
same,gamma-GTP,"72 h, time 3 day",0.6 IU/L
same,TERMINAL_BW,"[…], time 7 day",283.7 g
same,TERMINAL_BW,"[…], time 14 day",321.7 g
same,TERMINAL_BW,"[…], time 28 day",410.5 g
same,APTT,"[…], time 7 day",17.3 s
same,Bas,"[…], time 7 day",0.2%
same,Eos,"[…], time 7 day",1%
same,Fbg,"[…], time 7 day",291 mg/dL
same,Hb,"[…], time 7 day",13.4 g/dL
same,Ht,"[…], time 7 day",39.7%
same,Lym,"[…], time 7 day",78.2%
same,MCH,"[…], time 7 day",21.2 pg
same,MCHC,"[…], time 7 day",33.7%
same,MCV,"[…], time 7 day",62.8 fL
same,Mono,"[…], time 7 day",3%
same,Neu,"[…], time 7 day",16.4%
same,PT,"[…], time 7 day",15.5 s
same,Plat,"[…], time 7 day",114.5 x10_4/uL
same,RBC,"[…], time 7 day",631.8 x10_4/ul
same,Ret,"[…], time 7 day",5.9%
same,WBC,"[…], time 7 day",125.8 x10_2/uL
same,APTT,"[…], time 14 day",19.2 s
same,Bas,"[…], time 14 day",0.4%
same,Eos,"[…], time 14 day",0.8%
same,Fbg,"[…], time 14 day",296.8 mg/dL
same,Hb,"[…], time 14 day",14.4 g/dL
same,Ht,"[…], time 14 day",42.1%
same,Lym,"[…], time 14 day",81.4%
same,MCH,"[…], time 14 day",20.8 pg
same,MCHC,"[…], time 14 day",34.3%
same,MCV,"[…], time 14 day",60.7 fL
same,Mono,"[…], time 14 day",2.2%
same,Neu,"[…], time 14 day",14.2%
same,PT,"[…], time 14 day",15.8 s
same,Plat,"[…], time 14 day",109.5 x10_4/uL
same,RBC,"[…], time 14 day",693.6 x10_4/ul
same,Ret,"[…], time 14 day",3.9%
same,WBC,"[…], time 14 day",112.4 x10_2/uL
same,APTT,"[…], time 28 day",17.7 s
same,Bas,"[…], time 28 day",0.6%
same,Eos,"[…], time 28 day",1%
same,Fbg,"[…], time 28 day",270.4 mg/dL
same,Hb,"[…], time 28 day",14.8 g/dL
same,Ht,"[…], time 28 day",43.9%
same,Lym,"[…], time 28 day",81.2%
same,MCH,"[…], time 28 day",19.8 pg
same,MCHC,"[…], time 28 day",33.8%
same,MCV,"[…], time 28 day",58.5 fL
same,Mono,"[…], time 28 day",1.8%
same,Neu,"[…], time 28 day",15%
same,PT,"[…], time 28 day",15.8 s
same,Plat,"[…], time 28 day",95.5 x10_4/uL
same,RBC,"[…], time 28 day",750.2 x10_4/ul
same,Ret,"[…], time 28 day",2.5%
same,WBC,"[…], time 28 day",110.9 x10_2/uL
same,ALP,"[…], time 7 day",1491.8 IU/L
same,ALT,"[…], time 7 day",41.2 IU/L
same,AST,"[…], time 7 day",67.4 IU/L
same,BUN,"[…], time 7 day",16.2 mg/dL
same,CRE,"[…], time 7 day",0.2 mg/dL
same,DBIL,"[…], time 7 day",0.018 mg/dL
same,GLC,"[…], time 7 day",188.2 mg/dL
same,IP,"[…], time 7 day",7.5 mg/dL
same,K,"[…], time 7 day",4 meq/L
same,Na,"[…], time 7 day",142.6 meq/L
same,PL,"[…], time 7 day",170.2 mg/dL
same,RALB,"[…], time 7 day",2.6 g/dL
same,TBIL,"[…], time 7 day",0.05 mg/dL
same,TC,"[…], time 7 day",83.6 mg/dL
same,TG,"[…], time 7 day",130.2 mg/dL
same,TP,"[…], time 7 day",5.7 g/dL
same,gamma-GTP,"[…], time 7 day",0.8 IU/L
same,ALP,"[…], time 14 day",1426.6 IU/L
same,ALT,"[…], time 14 day",40.8 IU/L
same,AST,"[…], time 14 day",70 IU/L
same,BUN,"[…], time 14 day",16.6 mg/dL
same,CRE,"[…], time 14 day",0.2 mg/dL
same,DBIL,"[…], time 14 day",0.016 mg/dL
same,GLC,"[…], time 14 day",188.6 mg/dL
same,IP,"[…], time 14 day",6.7 mg/dL
same,K,"[…], time 14 day",3.9 meq/L
same,Na,"[…], time 14 day",143.6 meq/L
same,PL,"[…], time 14 day",152 mg/dL
same,RALB,"[…], time 14 day",2.6 g/dL
same,TBIL,"[…], time 14 day",0.046 mg/dL
same,TC,"[…], time 14 day",72.2 mg/dL
same,TG,"[…], time 14 day",126.6 mg/dL
same,TP,"[…], time 14 day",5.9 g/dL
same,gamma-GTP,"[…], time 14 day",0.4 IU/L
same,ALP,"[…], time 28 day",1044.8 IU/L
same,ALT,"[…], time 28 day",36 IU/L
same,AST,"[…], time 28 day",58.6 IU/L
same,BUN,"[…], time 28 day",15.8 mg/dL
same,CRE,"[…], time 28 day",0.2 mg/dL
same,DBIL,"[…], time 28 day",0.016 mg/dL
same,GLC,"[…], time 28 day",179.4 mg/dL
same,IP,"[…], time 28 day",5.8 mg/dL
same,K,"[…], time 28 day",3.9 meq/L
same,Na,"[…], time 28 day",144 meq/L
same,PL,"[…], time 28 day",164.4 mg/dL
same,RALB,"[…], time 28 day",2.7 g/dL
same,TBIL,"[…], time 28 day",0.044 mg/dL
same,TC,"[…], time 28 day",78.4 mg/dL
same,TG,"[…], time 28 day",155.8 mg/dL
same,TP,"[…], time 28 day",6.3 g/dL
same,gamma-GTP,"[…], time 28 day",1 IU/L
